The source of these data is US20170354669A1, “DISRUPTION OF THE INTERACTION BETWEEN AMYLOID BETA PEPTIDE AND DIETARY LIPIDS” (The Trustees of Columbia University in the City of New York, priority 2016, published 2017).

Assay [1] relates to APPsw+ mice. The assay can be described thus: Nesting behavior after intranasal treatment. Format: in vivo. The following applies: 10 days intranasal low dose 0.5 mg/kg every other day, vs saline treated APPsw+, FIG. 4A. The protocol: SDPC was obtained from Avanti Polar Lipids (850472C) in chloroform, dried under vacuum conditions and resuspended in 0.9% saline (0.9% sodium chloride injection, USP, NDC 0409-7983-61, Hospira) containing 0.2% (weight:volume) methyl cellulose (average Mn 40,000, viscosity: 400 cP, CAS 9004-67-5, Sigma-Aldrich 274429) to aid in solubilization. A control solution of 0.9% saline containing 0.2% methyl cellulose was prepared at the same time without SDPC. A concentration of 3 mg/ml was used for doses 1-15 and 12 mg/ml was used for doses 16-18 (FIG. 3). Brief (3-5 minutes) bath sonication was used to improve solubility of 12 mg/ml concentration. Mice were treated for 10 days at a low dose of SDPC intranasally administered 2.5 uL each nostril (5 μL total dose) for 0.5 mg/kg every other day assuming average mouse weight of 30 g (0.03 kg) (FIG. 3). After 10 days, dose was escalated to 2 mg/kg every other day for an additional 19 days (total treatment time […]). Doses 16-18 were administered daily. Non-invasive behavioral testing using novel object recognition (118) and Nesting behavior (114) were used to assess behavioral function. Deficits were expected in APPsw+ (Tg) mice and compared to wild type littermates of the same age (13-14 months). […]

Assay [2] relates to APPsw+ mice. The assay can be described thus: Novel object recognition (NOR) training and testing, activity and exploration. Type of assay: in vivo. The protocol: FIGS. 6A-6B. 30 days treatment with escalating dose SDPC. (A) Mice were placed in a box with two identical objects for 10 minutes on the training day 1. […] One object was replaced with a novel object for testing (NOD index). The same data is shown to scale in FIG. 6B (Testing (immediate)). Twenty-four hours later (Testing (24 hours)), mice were placed in the same context with one of the original identical objects (Familiar) and a second novel object (Novel). The time spent with each object was recorded. (B) For testing, novel object discrimination (NOD index) is assessed using the equation [(time novel)/(time familiar+time novel)]. NOD index of 0.5 represents equal time with each object. NOD>0.5 represents more time spent with novel object. Standard error is shown for means of Saline treated APPsw+(control) (n=4); SDPC treated APPsw+ (n=5) and wild type receiving no treatment (n=4). Significance was determined for […] using Student's t-test. SDPC was obtained from Avanti Polar Lipids (850472C) in chloroform, dried under vacuum conditions and resuspended in 0.9% saline (0.9% sodium chloride injection, USP, NDC 0409-7983-61, Hospira) containing 0.2% (weight:volume) methyl cellulose (average Mn 40,000, viscosity: 400 cP, CAS 9004-67-5, Sigma-Aldrich 274429) to aid in solubilization. A control solution of 0.9% saline containing 0.2% methyl cellulose was prepared at the same time without SDPC. A concentration of 3 mg/ml was used for doses 1-15 and 12 mg/ml was used for doses 16-18 (FIG. 3). Brief (3-5 minutes) bath sonication was used to improve solubility of 12 mg/ml concentration. Mice were treated for 10 days at a low dose of SDPC intranasally administered 2.5 uL each nostril (5 μL total dose) for 0.5 mg/kg every other day assuming average mouse weight of 30 g (0.03 kg) (FIG. 3). After 10 days, dose was escalated to 2 mg/kg every other day for an additional 19 days (total treatment time […]). Doses 16-18 were administered daily. Non-invasive behavioral testing using novel object recognition (118) and Nesting behavior (114) were used to assess behavioral function. Deficits were expected in APPsw+ (Tg) mice and compared to wild type littermates of the same age (13-14 months). APPsw+ mice were treated (Tx) with either control solution of 0.9% saline containing 0.2% methyl cellulose [Saline] or SDPC in 0.9% saline containing 0.2% methyl cellulose [SDPC]. […] Significant changes were seen using Student's t-test comparing SDPC and wild type (non-treated) [WT Ntx] and comparing saline and WT Ntx, but not when comparing SDPC and saline groups likely due to small sample size (n=4-5).

Assay [3] has as its system APPsw+ mice. Put plainly: Open Field testing. Format: in vivo. The following applies: 10 days intranasal low dose, following NOR testing; FIG. 4D. The protocol:
FIGS. 4A-4D. 10 days treatment with low dose SDPC. (A) After 10 days treatment (Tx) with low dose phosphatidylcholine (PC) containing docosahexaenoyl (22:6) and stearoyl (18:0) acyl chains, 18:0-22:6 PC; 1-stearoyl-2-docosahexaenoyl-sn-glycero-3-phosphocholine (CAS Number 59403-52-0; Synonyms: 1-octadecanoyl-2-(4Z,7Z,10Z,13Z,16Z,19Z-docosahexaenoyI)-sn-glycero-3-phosphocholine and PC(18:0/22:6(4Z,7Z,10Z,13Z,16Z,19Z))) (SDPC) intranasally, nesting score was assessed as described before (114). The number of nestlettes (from 3 initially placed in cage) was estimated and exact weight of remaining nestlettes was determined in grams (g) from initial 3 nestlettes (approximately 2 g). (B) Activity during novel object recognition (NOR) training was assessed after 10 days intranasal SDPC. Grooming behavior, free rearing, wall rearing and center crossing events are shown and were summed in total events. (C) Time spent with each identical object during NOR training. (D) Activity during Open Field testing 24 hours after NOR training (note, no difference in novel object discrimination (NOD) index was found. Standard error is shown for means of Saline treated APPsw+(control) (n=4); SDPC treated APPsw+ (n=5) and wild type receiving no treatment (n=4). Significance was determined for […] using Student's t-test. […]

The test system of assay [4] is APPsw+ mice. Put plainly: Novel object recognition (NOR) training and testing, activity and exploration. The conditions noted are these: 10 days intranasal low dose. Type of assay: in vivo.
Assay [5] deals with T1, Aβ42 (Homo sapiens, UniProt P05067).
T1 construct: SensoLyte Fluorescent β-Amyloid1-42 Sampler Kit, Anaspec; purchased Anaspec
Put plainly: Lipid binding assay: Aβ42-FAM binding to plate-bound amine-containing lipids. From the text: Maleic Anhydride Activated plates (Pierce Amine-binding, 96-well plates, Thermo Scientific) were washed in wash buffer (PBS: Phosphate buffered saline, 0.15 M sodium chloride, pH 7.2 containing 0.05% Tween-20 Detergent, PBST, Thermo Scientific) 4 times to activate reactive maleic anhydride functional group. Amine containing lipids were PE containing docosahexaenoyl (22:6) and stearoyl (18:0) acyl chains (22:6/18:0 PE) or two stearoyl acyl chains (di18:0 PE) were from Avanti Polar Lipids. 22:6/18:0 PE was obtained in chloroform, dried down and solubilized at 200 pmol/μL in 1% n-octylglucoside (NOG, Santa Cruz) in PBS and sonicated for […]. di18:0 PE was obtained as a powder, solubilized at 200 pmol/μl in 1% NOG and bath sonicated for 5 minutes. Lipids were incubated at a volume of 100 μL in activated maleic anhydride plates at increasing concentration at 4° C. in PBS/1% NOG. After incubation, lipids were removed and SuperBlock Blocking Buffer/PBS (Thermo) was added at a volume of […] for 1 hour at room temperature. Plates were then washed 4 times with PBST (Thermo Scientific). Fluorescently labeled amyloid β-peptide (SensoLyte Fluorescent β-Amyloid1-42 Sampler Kit, Anaspec) was prepared with […], Component B, Solvent for β-amyloid (Anaspec) as per the commercial protocol and then diluted in deionized water to a concentration of 100 μM. […] Plates were then washed 4 times in PBST and fluorescence was detected using Tecan Infinite 200 at wavelengths 494/521 (excitation, emission) using the Optimal Gain setting.
Assays were done in triplicate wells and reported as mean+/−standard error. Binding kinetics and best fit curve fitting were accomplished using Prism Graphpad software.
Lipid containing long chain polyunsaturated fatty acid 22:6, docosahexaenoic acid (DHA) and an amine containing headgroup, phosphatidylethanoloamine (PE) was bound to maleic anhydride activated plates which bind to free primary amine functional groups at neutral and alkaline pH. […] Specific binding was calculated by subtracting background binding of di18:0 PE.

Assay [6] has as its target T2, Aβ42-FAM bound lipids containing 22:6 (Homo sapiens, UniProt P05067).
T2 construct: SensoLyte Fluorescent β-Amyloid1-42 Sampler Kit, Anaspec; purchased Anaspec
The assay can be described thus: Competition of Aβ42-FAM binding to plate-bound 22:6 lipid. The conditions noted are these: competitor peptide 5×, 1 μM; FIG. 1C. The protocol:
Scrambled Aβ or unlabeled Aβ42 peptides (Anaspec) were diluted to 100 μM as above and then diluted in SuperBlock Blocking buffer to 1 μM, incubated for 1 hour at room temperature. Plates were washed and FAM fluorescence was read as above. Lipid containing long chain polyunsaturated fatty acid 22:6, docosahexaenoic acid (DHA) and an amine containing headgroup, phosphatidylethanoloamine (PE) was bound to maleic anhydride activated plates which bind to free primary amine functional groups at neutral and alkaline pH. All binding and washing steps were done in PBS, PBST and SuperBlock PBS to maintain pH at 7.2. A control acyl chain lipid hypothesized not to bind to Aβ peptide was 18:0, stearic acid containing PE (di18:0). After lipids were bound and unreacted binding sites were blocked using SuperBlock, Aβ42 peptide fluorescently tagged with FAM (Anaspec) was incubated with lipid bound wells. […] The dissociation constant Kd was calculated to be 300 nM. Specific binding was calculated by subtracting background binding of di18:0 PE.

Where “and” joins values, the source holds several entries; their conditions need not be identical. Equal values may be shown once. Entries after “also recorded” stand apart in the source; their conditions may differ.

`CC/C=C\C/C=C\C/C=C\C/C=C\C/C=C\C/C=C\CCC(=O)O[C@H](COC(=O)CCCCCCCCCCCCCCCCC)COP(=O)([O-])OCC[N+](C)(C)C` [SDPC, 1-stearoyl-2-docosahexaenoyl-sn-glycero-3-phosphocholine]: in assay [1], the nesting behavior entry is “trend toward improvement; also recorded: non-significant trend for improvement”. In addition, the “discrimination of one displaced identical object (hippocampal function)” value in assay [2] (30 days escalating dose, training day 2, FIG. 6A) is reported as “no discrimination was determined”. For the same compound, the “number of wall rears and total activity events” value in assay [2] (30 days intranasal escalated dose (to 2 mg/kg), SDPC vs saline treated APPsw+, FIG. 5) was “significant improvement”. Also, the “NOR deficits: time spent with a novel object” value in assay [2] (30 days intranasal escalated dose, FIG. 6) is “significant amelioration”. The “novel object discrimination index (NOD index)” value in assay [2] (30 days intranasal escalated dose, FIG. 6B) is on record as “significant changes were not observed; also recorded: trend for amelioration”. Further, the “activity in the open field test” value in assay [3] is listed as “continued improvement of activity level; also recorded: restored to the level of wild type non-treated mice”. Also, the “NOR discrimination (NOD index) 24 hours after training” value in assay [4] is listed as “no discrimination was found; also recorded: no difference”. Besides, the “activity during NOR training (wall rearing, free rearing, total activity level)” value in assay [4] (vs saline treated APPsw+, FIG. 4B) is “trend toward improvement; also recorded: non-significant trend for improvement”. In assay [4] (FIG. 4C), the “exploration: time spent with identical objects during NOR training” value is recorded as “trend toward improved exploratory behavior; also recorded: non-significant trend toward exploration activity”.

Turning to `CC/C=C\C/C=C\C/C=C\C/C=C\C/C=C\C/C=C\CCC(=O)O` [DHA, docosahexaenoic acid], in assay [5] (read-out: dissociation constant Kd of Aβ binding to DHA), the Kd was ~300 nM and 300 nM.

For the compound “unlabeled Aβ42 peptide: unlabeled Aβ42 peptide (Anaspec) used as competitor”, the “competitive disruption of Aβ42-FAM binding to 22:6 lipid” value in assay [6] is given as “competitively disrupted”.

For `CCCCCCCCCCCCCCCCCC(=O)OC[C@H](COP(=O)(O)OCCN)OC(=O)CCCCCCCCCCCCCCCCC` [di18:0 PE, reference compound], the “binding of Aβ42-FAM to plate-bound lipid” value in assay [5] (FIGS. 1A and 1B, di18:0 at concentrations 10,000 pmol/well and below) is “very low binding activity”. Also, in assay [5] (only at the highest concentrations of lipid), the “binding of Aβ42-FAM to plate-bound lipid at the highest concentrations” value is reported as “modest binding”.

By Kd is commonly meant the equilibrium constant for the complex coming apart.
